This note sets out measurements from US12421254B2, “KRAS modulators and uses thereof” (Quanta Therapeutics, Inc., priority 2023, dated 2025).

In general, pIC50 refers to the negative decadic logarithm of the IC50, by convention in mol/L.

pIC50: −log10 of the molar value.

The target in assay [1] is GST-tagged KRAS-G12V (2-169) (Homo sapiens, UniProt P01116, G12V). Kind of assay: Nucleotide exchange assay (NEA), SOS-mediated, HTRF, KRAS G12V. It is filed as biochemical. Particulars: Table 4; IC50 extracted at 90 min; 80 nM SOS. The method, boiled down: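 GST-KRAS-G12V (2-169), 0.25 nM, pre-incubated 1 h at RT with compound, then SOS1cat (564-1049) 80 nM and GTP-DY-647P1 150 nM added in HEPES pH 7.3 buffer with MgCl2 and DTT. HTRF via anti-GST Tb cryptate read over 90 min; IC50 from 4-parameter fit at 90 min, blanked to no-SOS reactions.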
A general note: In TR-FRET formats the signal depends on donor and acceptor labels being close together.

Assay [2] addresses GST-tagged KRAS-G12D (2-169) (Homo sapiens, UniProt P01116, G12D). Description: Nucleotide exchange assay (NEA), SOS-mediated, HTRF, KRAS G12D. It is filed as biochemical. Particulars: Table 4; IC50 extracted at 30 min; 20 nM SOScat; read-out: NEA G12D IC50. The method, boiled down:
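Compound preincubated 1 h at RT with 0.25 nM GST-KRAS-G12D (2-169) and anti-GST Tb donor, then 20 nM SOS1cat (564-1049) and 150 nM GTP-DY-647P1 added; pH 7.3 HEPES buffer with MgCl2 and DTT. HTRF monitored at RT; % inhibition versus DMSO and no-SOS blank, 4-parameter IC50 taken at 30 min.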

Sequence of GST-tagged KRAS-G12V (2-169) (P01116 2-169 isoform P01116-2 G12V): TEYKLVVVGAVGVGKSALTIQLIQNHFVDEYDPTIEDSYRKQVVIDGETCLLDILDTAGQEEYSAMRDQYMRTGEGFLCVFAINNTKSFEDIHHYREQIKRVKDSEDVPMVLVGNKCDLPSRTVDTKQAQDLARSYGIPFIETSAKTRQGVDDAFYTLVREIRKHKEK
Sequence of GST-tagged KRAS-G12D (2-169) (P01116 2-169 isoform P01116-2 G12D): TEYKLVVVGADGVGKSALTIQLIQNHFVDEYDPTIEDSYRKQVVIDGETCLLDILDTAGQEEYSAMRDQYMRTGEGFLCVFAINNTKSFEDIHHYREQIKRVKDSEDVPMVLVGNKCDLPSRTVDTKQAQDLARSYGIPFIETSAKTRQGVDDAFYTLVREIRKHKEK

On to `N#Cc1c(N)sc2c1C1(CC2)CN(c2nc(OC[C@@]34CCCN3C[C@H](F)C4)nc(OC3CCOC3)n2)C1` (stereo partly drawn) [Compound 78, 2-amino-1′-[4-[[(2R,8S)-2-fluoro-1,2,3,5,6,7-hexahydropyrrolizin-8-yl]methoxy]-6-tetrahydrofuran-3-yloxy-1,3,5-triazin-2-yl]spiro[5,6-dihydrocyclopenta[b]thiophene-4,3′-azetidine]-3-carbonitrile; formic acid], for which the pIC50 in assay [1] was 6.00 to 7.00; in assay [2], 4.70 to 6.00.
For the compound `CC(c1cccnc1N)N(C)c1nc(OC[C@@]23CCCN2C[C@H](F)C3)nc(N2CC3(CCc4sc(N)c(C#N)c43)C2)n1` (stereo partly drawn) [Compound 83, 2-amino-1′-[4-[1-(2-amino-3-pyridyl)ethyl-methyl-amino]-6-[[(2R,8S)-2-fluoro-1,2,3,5,6,7-hexahydropyrrolizin-8-yl]methoxy]-1,3,5-triazin-2-yl]spiro[5,6-dihydrocyclopenta[b]thiophene-4,3′-azetidine]-3-carbonitrile], the pIC50 in assay [1] and in assay [2] was greater than 8.00 throughout.
Regarding `CC(Nc1nc(OC[C@@]23CCCN2C[C@H](F)C3)nc(N2CC3(CCc4sc(N)c(C#N)c43)C2)n1)c1cccnc1N` (stereo partly drawn) [Compound 88, 2-amino-1′-[4-[1-(2-amino-3-pyridyl)ethylamino]-6-[[(2R,8S)-2-fluoro-1,2,3,5,6,7-hexahydropyrrolizin-8-yl]methoxy]-1,3,5-triazin-2-yl]spiro[5,6-dihydrocyclopenta[b]thiophene-4,3′-azetidine]-3-carbonitrile], the pIC50 was greater than 8.00 in assay [1] and 6.00 to 7.00 in assay [2].
In the case of `N#Cc1c(N)sc2c1C1(CC2)CN(c2nc(OCC3(CN4CCOCC4)CC3)nc(N3CCCC(O)(CO)C3)n2)C1` (stereo not shown) [Compound 95, 2-amino-1′-[4-[3-hydroxy-3-(hydroxymethyl)-1-piperidyl]-6-[[1-(morpholinomethyl)cyclopropyl]methoxy]-1,3,5-triazin-2-yl]spiro[5,6-dihydrocyclopenta[b]thiophene-4,3′-azetidine]-3-carbonitrile], the pIC50 in assay [1] and in assay [2] was 7.00 to 8.00 in each case.
Consider `N#Cc1c(N)sc2c1C1(CC2)CN(c2nc(OC[C@@]34CCCN3C[C@H](F)C4)nc(N3CCSc4ncccc4C3)n2)C1` [Compound 99, 2-amino-1′-[4-(3,5-dihydro-2H-pyrido[3,2-f][1,4]thiazepin-4-yl)-6-[[(2R,8S)-2-fluoro-1,2,3,5,6,7-hexahydropyrrolizin-8-yl]methoxy]-1,3,5-triazin-2-yl]spiro[5,6-dihydrocyclopenta[b]thiophene-4,3′-azetidine]-3-carbonitrile], for which the values for the pIC50 in assay [1] and in assay [2] were 6.00 to 7.00 and 4.70 to 6.00, respectively.
For the compound `CC(c1nccnc1N)N(C)c1nc(OC[C@@]23CCCN2C[C@H](F)C3)nc(N2CC3(CCc4sc(N)c(C#N)c43)C2)n1` (stereo partly drawn) [Compound 102, 2-amino-1′-[4-[1-(3-aminopyrazin-2-yl)ethyl-methyl-amino]-6-[[(2R,8S)-2-fluoro-1,2,3,5,6,7-hexahydropyrrolizin-8-yl]methoxy]-1,3,5-triazin-2-yl]spiro[5,6-dihydrocyclopenta[b]thiophene-4,3′-azetidine]-3-carbonitrile], the figures for the pIC50 in assay [1] and in assay [2] were greater than 8.00 and 7.00 to 8.00, respectively.
On to `CC(c1cccnc1N)N(CCO)c1nc(OC[C@@]23CCCN2C[C@H](F)C3)nc(N2CC3(CCc4sc(N)c(C#N)c43)C2)n1` (stereo partly drawn) [Compound 110, 2-amino-1′-[4-[1-(2-amino-3-pyridyl)ethyl-(2-hydroxyethyl)amino]-6-[[(2R,8S)-2-fluoro-1,2,3,5,6,7-hexahydropyrrolizin-8-yl]methoxy]-1,3,5-triazin-2-yl]spiro[5,6-dihydrocyclopenta[b]thiophene-4,3′-azetidine]-3-carbonitrile], for which the pIC50 in assay [1] and in assay [2] was greater than 8.00 throughout.
For the compound `CC(c1cccnc1N)N(C)c1nc(OC[C@@H]2CCC(=O)N2)nc(N2CC3(CCc4sc(N)c(C#N)c43)C2)n1` (stereo partly drawn) [Compound 112, 2-amino-1′-[4-[1-(2-amino-3-pyridyl)ethyl-methyl-amino]-6-[[(2S)-5-oxopyrrolidin-2-yl]methoxy]-1,3,5-triazin-2-yl]spiro[5,6-dihydrocyclopenta[b]thiophene-4,3′-azetidine]-3-carbonitrile], the pIC50 is 6.00 to 7.00 in assay [1] and 4.70 to 6.00 in assay [2].
For `CC(c1cccnc1N)N(C)c1nc(OC[C@@]23CCCN2C[C@H](F)C3)nc(N2CC3(C2)SCc2sc(N)c(C#N)c23)n1` (stereo partly drawn) [Compound 115, 2-amino-1′-[4-[1-(2-amino-3-pyridyl)ethyl-methyl-amino]-6-[[(2R,8S)-2-fluoro-1,2,3,5,6,7-hexahydropyrrolizin-8-yl]methoxy]-1,3,5-triazin-2-yl]spiro[6H-thieno[3,4-b]thiophene-4,3′-azetidine]-3-carbonitrile] the same measures were greater than 8.00 and greater than 8.00.
As for `CC(c1ccn(C)n1)N(C)c1nc(OC[C@@]23CCCN2C[C@H](F)C3)nc(N2CC3(CCc4sc(N)c(C#N)c43)C2)n1` (stereo partly drawn) [Compound 119, 2-amino-1′-[4-[[(2R,8S)-2-fluoro-1,2,3,5,6,7-hexahydropyrrolizin-8-yl]methoxy]-6-[methyl-[1-(1-methylpyrazol-3-yl)ethyl]amino]-1,3,5-triazin-2-yl]spiro[5,6-dihydrocyclopenta[b]thiophene-4,3′-azetidine]-3-carbonitrile], the pIC50 in assay [1] and in assay [2] was 4.70 to 6.00 throughout.
`CC(c1ccccc1N)N(C)c1nc(OC[C@@]23CCCN2C[C@H](F)C3)nc(N2CC3(CCc4sc(N)c(C#N)c43)C2)n1` (stereo partly drawn) [Compound 121, 2′-amino-1-(4-((1-(2-aminophenyl)ethyl)(methyl)amino)-6-(((2R,7aS)-2-fluorotetrahydro-1H-pyrrolizin-7a(5H)-yl)methoxy)-1,3,5-triazin-2-yl)-5′,6′-dihydrospiro[azetidine-3,4′-cyclopenta[b]thiophene]-3′-carbonitrile]: the negative logarithm of the IC50 (pIC50) in assay [1] and in assay [2] was no more than 4.70 throughout.
Turning to `CC(c1ccnn1C)N(C)c1nc(OC[C@@]23CCCN2C[C@H](F)C3)nc(N2CC3(CCc4sc(N)c(C#N)c43)C2)n1` (stereo partly drawn) [Compound 125, 2-amino-1′-[4-[[(2R,8S)-2-fluoro-1,2,3,5,6,7-hexahydropyrrolizin-8-yl]methoxy]-6-[methyl-[i-(2-methylpyrazol-3-yl)ethyl]amino]-1,3,5-triazin-2-yl]spiro[5,6-dihydrocyclopenta[b]thiophene-4,3′-azetidine]-3-carbonitrile], the results for the pIC50 in assay [1] and in assay [2] were 7.00 to 8.00 and 4.70 to 6.00, respectively.
For `C[C@@]1(O)CCCN(c2nc(OC[C@@]34CCCN3C[C@H](F)C4)nc(N3CC4(C3)c3c(sc(N)c3C#N)C[S+]4[O-])n2)C1` (stereo partly drawn) [Compound 126, 2-amino-5-oxo-1′-[4-[[(2R,8S)-2-fluoro-1,2,3,5,6,7-hexahydropyrrolizin-8-yl]methoxy]-6-[(3R)-3-hydroxy-3-methyl-1-piperidyl]-1,3,5-triazin-2-yl]spiro[6H-thieno[3,4-b]thiophene-4,3′-azetidine]-3-carbonitrile] the same measures were 4.70 to 6.00 and 7.00 to 8.00.
`CC(C1=NN=CC1Cl)N(C)c1nc(OC[C@@]23CCCN2C[C@H](F)C3)nc(N2CC3(CCc4sc(N)c(C#N)c43)C2)n1` (stereo partly drawn) [Compound 127, 2-amino-1′-[4-[1-(4-chloro-1H-pyrazol-5-yl)ethyl-methyl-amino]-6-[[(2R,8S)-2-fluoro-1,2,3,5,6,7-hexahydropyrrolizin-8-yl]methoxy]-1,3,5-triazin-2-yl]spiro[5,6-dihydrocyclopenta[b]thiophene-4,3′-azetidine]-3-carbonitrile]: the pIC50 in assay [1] was 6.00 to 7.00; in assay [2] it was 4.70 to 6.00.
`N#Cc1c(N)sc2c1C1(CC2)CN(c2nc(OC[C@@]34CCCN3C[C@H](F)C4)nc(N(CCO)Cc3cc[nH]n3)n2)C1` [Compound 131, 2-amino-1′-[4-[[(2R,8S)-2-fluoro-1,2,3,5,6,7-hexahydropyrrolizin-8-yl]methoxy]-6-[2-hydroxyethyl(1H-pyrazol-5-ylmethyl)amino]-1,3,5-triazin-2-yl]spiro[5,6-dihydrocyclopenta[b]thiophene-4,3′-azetidine]-3-carbonitrile]: the pIC50 in assay [1] is 7.00 to 8.00; in assay [2], 6.00 to 7.00.
Consider `CN(Cc1cc(C(N)=O)nn1C)c1nc(OC[C@@]23CCCN2C[C@H](F)C3)nc(N2CC3(CCc4sc(N)c(C#N)c43)C2)n1` [Compound 135, 5-[[[4-(2-amino-3-cyano-spiro[5,6-dihydrocyclopenta[b]thiophene-4,3′-azetidine]-1′-yl)-6-[[(2R,8S)-2-fluoro-1,2,3,5,6,7-hexahydropyrrolizin-8-yl]methoxy]-1,3,5-triazin-2-yl]-methyl-amino]methyl]-1-methyl-pyrazole-3-carboxamide], for which the pIC50 in assay [1] and in assay [2] was 6.00 to 7.00 in each case.
As to `CC(c1c[nH]nc1Cl)N(C)c1nc(OC[C@@]23CCCN2C[C@H](F)C3)nc(N2CC3(CCc4sc(N)c(C#N)c43)C2)n1` (stereo partly drawn) [Compound 140, 2-amino-1′-[4-[1-(3-chloro-1H-pyrazol-4-yl)ethyl-methyl-amino]-6-[[(2R,8S)-2-fluoro-1,2,3,5,6,7-hexahydropyrrolizin-8-yl]methoxy]-1,3,5-triazin-2-yl]spiro[5,6-dihydrocyclopenta[b]thiophene-4,3′-azetidine]-3-carbonitrile], the pIC50 is 6.00 to 7.00 in assay [1] and 4.70 to 6.00 in assay [2].
